# Data reported in patent publication US20260234566A1, “CELL LINES FOR EXPRESSION OF LHCG RECEPTOR” (Ares Trading S.A., priority 2023, published 2026).
# Several values for one entry are separate records, joined by “and”; a condition that tells them apart may be missing. Identical values can stand only once.
# Columns and labels:
# [1] = test system: adenylate cyclase (AC); experiment: Reporter Gene Assay with forskolin stimulation, HEK 293-T WT; type: cell-based, human; conditions: single wells
# Experimental: (§1) Second transfection efficiency evaluation. In order to assess the second transfection efficiency, a Reporter Gene Assay (RGA) was performed. […] HEK 293-T LHCGR Luciferase cells were stimulated with forskolin. As described in literature, forskolin is a diterpene able to activate the adenylate cyclase (AC) allowing the increasing of intracellular cAMP in a wide variety of cell types. Exploiting forskolin ability, the RGA assay enables the evaluation of Reporter Gene Transcription in response to cAMP accumulation without involving the LHCG receptor. The luminescence emitted after Reporter Gene Transcription, was quantified using reagents available on the market. HEK 293-T LHCGR Luciferase and HEK 293-T without transfection were seeded in a 96 well plate and stimulated with different concentration of forskolin. After incubation, the ONE-Glo EX Luciferase assay system (Promega, E8120) was added in each well and, after 10 minutes shaking, results were acquired using the plate reader.
# [2] = test system: adenylate cyclase (AC); experiment: Reporter Gene Assay with forskolin stimulation, HEK 293-T LHCGR Luciferase; type: cell-based, human; conditions: single wells
# Experimental: as §1, with “reader. Second transfection stability. HEK 293-T LHCGR Luciferase were stimulated with forskolin 4 μM or left unstimulated. Results were reported as a fold change of treated cells over unstimulated control. All % CVs were calculated among fold changes obtained for the three banks and resulted below 25%. The mean and the SD of the 3 banks were calculated and used to generate the graphs in FIG. 4B.” for “reader.”
compound,measurement,setting,value
"C=C[C@@]1(C)CC(=O)[C@]2(O)[C@@]3(C)[C@@H](O)CCC(C)(C)[C@@H]3[C@H](O)[C@H](OC(C)=O)[C@@]2(C)O1 [Forskolin, forskolin]",Luminescence values expressed as RLUs,[1]; forskolin 0.004 μM,92 RLUs and 61 RLUs and 62 RLUs
same,Luminescence values expressed as RLUs,[1]; forskolin 0.04 μM,124 RLUs and 88 RLUs and 68 RLUs
same,Luminescence values expressed as RLUs,[1]; forskolin 400 μM,227 RLUs and 130 RLUs and 124 RLUs
same,Luminescence values expressed as RLUs,[2]; forskolin 0.004 μM,4221 RLUs and 4333 RLUs and 3899 RLUs
same,Luminescence values expressed as RLUs,[2]; forskolin 0.04 μM,7547 RLUs and 6804 RLUs and 7636 RLUs
same,Luminescence values expressed as RLUs,[2]; forskolin 0.4 μM,65001 RLUs and 62733 RLUs and 72165 RLUs
same,Luminescence values expressed as RLUs,[2]; forskolin 4 μM,310180 RLUs and 299010 RLUs and 303780 RLUs
same,Luminescence values expressed as RLUs,[2]; forskolin 40 μM,374090 RLUs and 378740 RLUs and 387970 RLUs
same,Luminescence values expressed as RLUs,[2]; forskolin 400 μM,205580 RLUs and 197090 RLUs and 195210 RLUs
